From ChEMBL document CHEMBL1128651, “Preparation and in vitro activity of aryl ether derivatives of the FK-506 related immunosuppressive macrolides ascomycin and L-683,742” (Bioorg Med Chem Lett, 1995)

Test system: Murine T-cell line
Test: Inhibition of proliferation of PMA and Ionomycin stimulated murine T cells
Type: functional, cell-based
Details: Mus musculus

Row | Compound | IC50 [nM]
1 | CC[C@@H]1/C=C(\C)C[C@H](C)C[C@H](OC)[C@H]2O[C@@](O)(C(=O)C(=O)N3CCCC[C@H]3C(=O)O[C@H](/C(C)=C/[C@@H]3CC[C@@H](Oc4cc(C(F)(F)F)cc(C(F)(F)F)c4)[C@H](OC)C3)[C@H](C)[C@@H](O)CC1=O)[C@H](C)C[C@@H]2OC | 607
2 | CC[C@@H]1/C=C(\C)C[C@H](C)C[C@H](OC)[C@H]2O[C@@](O)(C(=O)C(=O)N3CCCC[C@H]3C(=O)O[C@H](/C(C)=C/[C@@H]3CC[C@@H](Oc4ccccc4)[C@H](OC)C3)[C@H](C)[C@@H](O)CC1=O)[C@H](C)C[C@@H]2OC | 5.4
3 | CC[C@@H]1/C=C(\C)C[C@H](C)C[C@H](OC)[C@H]2O[C@@](O)(C(=O)C(=O)N3CCCC[C@H]3C(=O)O[C@H](/C(C)=C/[C@@H]3CC[C@@H](Oc4ccc(C)cc4)[C@H](O)C3)[C@H](C)[C@@H](O)CC1=O)[C@H](C)C[C@@H]2OC | 6
4 | CC[C@@H]1/C=C(\C)C[C@H](C)C[C@H](OC)[C@H]2O[C@@](O)(C(=O)C(=O)N3CCCC[C@H]3C(=O)O[C@H](/C(C)=C/[C@@H]3CC[C@@H](O)[C@H](Oc4ccc(C)cc4)C3)[C@H](C)[C@@H](O)CC1=O)[C@H](C)C[C@@H]2OC | 2.6
5 | CC[C@@H]1/C=C(\C)C[C@H](C)C[C@H](OC)[C@H]2O[C@@](O)(C(=O)C(=O)N3CCCC[C@H]3C(=O)O[C@H](/C(C)=C/[C@@H]3CC[C@@H](Oc4ccc(F)cc4)[C@H](OC)C3)[C@H](C)[C@@H](O)CC1=O)[C@H](C)C[C@@H]2OC | 3.4
6 | CC[C@@H]1/C=C(\C)C[C@H](C)C[C@H](OC)[C@H]2O[C@@](O)(C(=O)C(=O)N3CCCC[C@H]3C(=O)O[C@H](/C(C)=C/[C@@H]3CC[C@@H](Oc4ccccc4)[C@H](O)C3)[C@H](C)[C@@H](O)CC1=O)[C@H](C)C[C@@H]2OC | 5.2
7 | CC[C@@H]1/C=C(\C)C[C@H](C)C[C@H](OC)[C@H]2O[C@@](O)(C(=O)C(=O)N3CCCC[C@H]3C(=O)O[C@H](/C(C)=C/[C@@H]3CC[C@@H](O)[C@H](Oc4ccc(O)cc4)C3)[C@H](C)[C@@H](O)CC1=O)[C@H](C)C[C@@H]2OC | 0.9
8 | CC[C@@H]1/C=C(\C)C[C@H](C)C[C@H](OC)[C@H]2O[C@@](O)(C(=O)C(=O)N3CCCC[C@H]3C(=O)O[C@H](/C(C)=C/[C@@H]3CC[C@@H](Oc4ccc(O)cc4)[C@H](O)C3)[C@H](C)[C@@H](O)CC1=O)[C@H](C)C[C@@H]2OC | 1.6
9 | CC[C@@H]1/C=C(\C)C[C@H](C)C[C@H](OC)[C@H]2O[C@@](O)(C(=O)C(=O)N3CCCC[C@H]3C(=O)O[C@H](/C(C)=C/[C@@H]3CC[C@@H](Oc4cccc(C)c4)[C@H](OC)C3)[C@H](C)[C@@H](O)CC1=O)[C@H](C)C[C@@H]2OC | 5.4
10 | CC[C@@H]1/C=C(\C)C[C@H](C)C[C@H](OC)[C@H]2O[C@@](O)(C(=O)C(=O)N3CCCC[C@H]3C(=O)O[C@H](/C(C)=C/[C@@H]3CC[C@@H](Oc4ccc(O)cc4)[C@H](OC)C3)[C@H](C)[C@@H](O)CC1=O)[C@H](C)C[C@@H]2OC | 0.8
11 | CC[C@@H]1/C=C(\C)C[C@H](C)C[C@H](OC)[C@H]2O[C@@](O)(C(=O)C(=O)N3CCCC[C@H]3C(=O)O[C@H](/C(C)=C/[C@@H]3CC[C@@H](O)[C@H](Oc4ccccc4)C3)[C@H](C)[C@@H](O)CC1=O)[C@H](C)C[C@@H]2OC | 3.2
12 | CC[C@@H]1/C=C(\C)C[C@H](C)C[C@H](OC)[C@H]2O[C@@](O)(C(=O)C(=O)N3CCCC[C@H]3C(=O)O[C@H](/C(C)=C/[C@@H]3CC[C@@H](O)[C@H](O)C3)[C@H](C)[C@@H](O)CC1=O)[C@H](C)C[C@@H]2OC | 1.63
13 | CC[C@@H]1/C=C(\C)C[C@H](C)C[C@H](OC)[C@H]2O[C@@](O)(C(=O)C(=O)N3CCCC[C@H]3C(=O)O[C@H](/C(C)=C/[C@@H]3CC[C@@H](O)[C@H](Oc4ccc(OC)cc4)C3)[C@H](C)[C@@H](O)CC1=O)[C@H](C)C[C@@H]2OC | 0.9
14 | CC[C@@H]1/C=C(\C)C[C@H](C)C[C@H](OC)[C@H]2O[C@@](O)(C(=O)C(=O)N3CCCC[C@H]3C(=O)O[C@H](/C(C)=C/[C@@H]3CC[C@@H](Oc4ccc(C(F)(F)F)cc4)[C@H](OC)C3)[C@H](C)[C@@H](O)CC1=O)[C@H](C)C[C@@H]2OC | 35.8
15 | CC[C@@H]1/C=C(\C)C[C@H](C)C[C@H](OC)[C@H]2O[C@@](O)(C(=O)C(=O)N3CCCC[C@H]3C(=O)O[C@H](/C(C)=C/[C@@H]3CC[C@@H](Oc4cccc(OC)c4)[C@H](OC)C3)[C@H](C)[C@@H](O)CC1=O)[C@H](C)C[C@@H]2OC | 3.4
16 | CC[C@@H]1/C=C(\C)C[C@H](C)C[C@H](OC)[C@H]2O[C@@](O)(C(=O)C(=O)N3CCCC[C@H]3C(=O)O[C@H](/C(C)=C/[C@@H]3CC[C@@H](Oc4ccc(SC)cc4)[C@H](OC)C3)[C@H](C)[C@@H](O)CC1=O)[C@H](C)C[C@@H]2OC | 2.6
17 | CC[C@@H]1/C=C(\C)C[C@H](C)C[C@H](OC)[C@H]2O[C@@](O)(C(=O)C(=O)N3CCCC[C@H]3C(=O)O[C@H](/C(C)=C/[C@@H]3CC[C@@H](Oc4cccc(O)c4)[C@H](OC)C3)[C@H](C)[C@@H](O)CC1=O)[C@H](C)C[C@@H]2OC | 1.7
18 | CC[C@@H]1/C=C(\C)C[C@H](C)C[C@H](OC)[C@H]2O[C@@](O)(C(=O)C(=O)N3CCCC[C@H]3C(=O)O[C@H](/C(C)=C/[C@@H]3CC[C@@H](Oc4ccc(N(C)C)cc4)[C@H](OC)C3)[C@H](C)[C@@H](O)CC1=O)[C@H](C)C[C@@H]2OC | 1.1
19 | CC[C@@H]1/C=C(\C)C[C@H](C)C[C@H](OC)[C@H]2O[C@@](O)(C(=O)C(=O)N3CCCC[C@H]3C(=O)O[C@H](/C(C)=C/[C@@H]3CC[C@@H](Oc4ccc(OC)cc4)[C@H](OC)C3)[C@H](C)[C@@H](O)CC1=O)[C@H](C)C[C@@H]2OC | 1.4
20 | CC[C@@H]1/C=C(\C)C[C@H](C)C[C@H](OC)[C@H]2O[C@@](O)(C(=O)C(=O)N3CCCC[C@H]3C(=O)O[C@H](/C(C)=C/[C@@H]3CC[C@@H](Oc4ccc(C)cc4)[C@H](OC)C3)[C@H](C)[C@@H](O)CC1=O)[C@H](C)C[C@@H]2OC | 2.7
21 | CC[C@@H]1/C=C(\C)C[C@H](C)C[C@H](OC)[C@H]2O[C@@](O)(C(=O)C(=O)N3CCCC[C@H]3C(=O)O[C@H](/C(C)=C/[C@@H]3CC[C@@H](Oc4ccc(OC)cc4)[C@H](O)C3)[C@H](C)[C@@H](O)CC1=O)[C@H](C)C[C@@H]2OC | 1.2
22 | CC[C@@H]1/C=C(\C)C[C@H](C)C[C@H](OC)[C@H]2O[C@@](O)(C(=O)C(=O)N3CCCC[C@H]3C(=O)O[C@H](/C(C)=C/[C@@H]3CC[C@@H](O)[C@H](OC)C3)[C@H](C)[C@@H](O)CC1=O)[C@H](C)C[C@@H]2OC [ASCOMYCIN] | 0.69
